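Interpolation was linear, between the two tested concentrations surrounding the appropriate level; five concentrations were tested over 48 hours in 96-well plates. At the TGI there is no net growth.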
Columns and labels:
Experiment in all cases: DTP human tumour cell line panel, 48 h
UO-31 renal = test system: UO-31 renal
M19-MEL melanoma = test system: M19-MEL melanoma
ACHN renal = test system: ACHN renal
KM12 colon = test system: KM12 colon
HCT-116 colon = test system: HCT-116 colon
SK-MEL-28 melanoma = test system: SK-MEL-28 melanoma
SK-MEL-5 melanoma = test system: SK-MEL-5 melanoma
SW-620 colon = test system: SW-620 colon
LOX IMVI melanoma = test system: LOX IMVI melanoma
SK-OV-3 ovarian = test system: SK-OV-3 ovarian
UACC-257 melanoma = test system: UACC-257 melanoma
K-562 leukemia = test system: K-562 leukemia
RXF 393 renal = test system: RXF 393 renal
M14 melanoma = test system: M14 melanoma
786-0 renal = test system: 786-0 renal
HCT-15 colon = test system: HCT-15 colon
MDA-MB-231 breast = test system: MDA-MB-231 breast
MDA-MB-435 = test system: MDA-MB-435
DU-145 prostate = test system: DU-145 prostate
HS 578T breast = test system: HS 578T breast

Compound	TGI (UO-31 renal)	TGI (M19-MEL melanoma)	TGI (ACHN renal)	TGI (KM12 colon)	TGI (HCT-116 colon)	TGI (SK-MEL-28 melanoma)	TGI (SK-MEL-5 melanoma)	TGI (SW-620 colon)	TGI (LOX IMVI melanoma)	TGI (SK-OV-3 ovarian)	TGI (UACC-257 melanoma)	TGI (K-562 leukemia)	TGI (RXF 393 renal)	TGI (M14 melanoma)	TGI (786-0 renal)	TGI (HCT-15 colon)	TGI (MDA-MB-231 breast)	TGI (MDA-MB-435)	TGI (DU-145 prostate)	TGI (HS 578T breast)
COC(=O)N/N=C(/Cc1occc(=O)c1O)C(=O)Nc1ccc([N+](=O)[O-])cc1[N+](=O)[O-]	> 100 µM	> 100 µM	> 100 µM	> 100 µM	> 100 µM	> 100 µM	> 100 µM	> 100 µM	> 100 µM	> 100 µM	> 100 µM	> 100 µM	> 100 µM	> 100 µM	> 100 µM	> 100 µM	–	–	–	–
COC(=O)C(=O)C(C(=O)OC)C(=O)C(=O)Nc1cc(Cl)c(Cl)cc1Cl (configuration not stated)	> 100 µM	> 100 µM	> 100 µM	> 100 µM	75.8 µM	> 100 µM	> 100 µM	–	> 100 µM	> 100 µM	> 100 µM	> 100 µM	> 100 µM	> 100 µM	> 100 µM	> 100 µM	–	–	–	–
Cn1nc2ccccc2cc1=O	> 100 µM	> 100 µM	> 100 µM	> 100 µM	> 100 µM	> 100 µM	> 100 µM	> 100 µM	> 100 µM	> 100 µM	> 100 µM	> 100 µM	–	> 100 µM	> 100 µM	> 100 µM	–	–	–	–
COC1=CC(=O)C2C(C1=O)C(c1ccc(OC)c(OC)c1)[C@H]2C (some centres not stated)	> 100 µM	42.1 µM	33.4 µM	> 100 µM	31.9 µM	39.3 µM	61.4 µM	40.6 µM	40.4 µM	> 100 µM	41.1 µM	54.4 µM	35.2 µM	34.9 µM	31.9 µM	34.5 µM	–	–	–	–
CC(C)(C)C(=O)/C=C/c1cccc(Oc2ccccc2)c1	28.8 µM	54.2 µM	28.5 µM	25.6 µM	31 µM	34.1 µM	30.4 µM	–	–	> 100 µM	28.4 µM	30.1 µM	30 µM	34.7 µM	30.7 µM	40.4 µM	–	–	–	–
CC(C)c1cccc(C(C)C)c1NC(=O)CCC(=O)NN	> 100 µM	> 100 µM	> 100 µM	> 100 µM	> 100 µM	> 100 µM	> 100 µM	42.9 µM	–	> 100 µM	> 100 µM	> 100 µM	–	> 100 µM	> 100 µM	37.7 µM	–	–	–	–
C/C(=N/NC(N)=S)C(CN(C)C)C(C1=C(O)c2ccccc2OC1)c1ccccc1 (configuration not stated)	> 100 µM	> 100 µM	> 100 µM	> 100 µM	> 100 µM	> 100 µM	> 100 µM	> 100 µM	> 100 µM	> 100 µM	> 100 µM	> 100 µM	> 100 µM	> 100 µM	> 100 µM	> 100 µM	–	–	–	–
O=C1NC2C(CCO)CC=C[C@H]2c2cc3c(cc21)OCO3 (some centres not stated)	> 100 µM	> 100 µM	> 100 µM	> 100 µM	> 100 µM	> 100 µM	–	> 100 µM	> 100 µM	> 100 µM	> 100 µM	> 100 µM	> 100 µM	> 100 µM	> 100 µM	> 100 µM	–	–	–	–
CCCc1c(C(=O)OCC)[nH]c(C(=O)CCC(=O)c2[nH]c(C(=O)OCC)c(CCC)c2C(=O)OCC)c1C(=O)OCC	> 100 µM	> 100 µM	> 100 µM	> 100 µM	> 100 µM	> 100 µM	> 100 µM	> 100 µM	> 100 µM	> 100 µM	> 100 µM	> 100 µM	> 100 µM	> 100 µM	> 100 µM	> 100 µM	–	–	–	–
O=C(N/N=C(\c1nc2ccc(Cl)cc2[nH]c1=O)C(O)c1ccccc1Cl)c1ccncc1 (configuration not stated)	> 100 µM	> 100 µM	> 100 µM	> 100 µM	> 100 µM	> 100 µM	> 100 µM	> 100 µM	> 100 µM	> 100 µM	> 100 µM	> 100 µM	> 100 µM	> 100 µM	> 100 µM	> 100 µM	–	–	–	–
CCN(CC)CCCCC1CCN(CC(=O)N2c3cc(Cl)ccc3NC(=O)CC2C)CC1 (configuration not stated)	> 100 µM	> 100 µM	> 100 µM	–	> 100 µM	> 100 µM	> 100 µM	> 100 µM	> 100 µM	> 100 µM	> 100 µM	> 100 µM	–	> 100 µM	> 100 µM	> 100 µM	–	–	–	–
CCOC(=O)Nn1c(C)cc(C(=O)OC)c1C	> 100 µM	> 100 µM	> 100 µM	> 100 µM	> 100 µM	> 100 µM	> 100 µM	> 100 µM	> 100 µM	> 100 µM	> 100 µM	> 100 µM	> 100 µM	> 100 µM	> 100 µM	> 100 µM	–	–	–	–
CC(C)C1COC(c2ccc3ccccc3c2-c2c(O[Si](C)(C)C(C)(C)C)ccc3ccccc23)=N1 (configuration not stated)	28.2 µM	33.7 µM	33.2 µM	35.7 µM	–	33.8 µM	31.8 µM	35.1 µM	45.5 µM	34.5 µM	34.1 µM	31.9 µM	34.7 µM	29.2 µM	32.4 µM	46.7 µM	–	–	–	–
CN1N=C2c3ccccc3CC[C@H]2C1c1cccc(O)c1 (some centres not stated)	> 100 µM	> 100 µM	> 100 µM	> 100 µM	> 100 µM	> 100 µM	–	> 100 µM	> 100 µM	> 100 µM	> 100 µM	> 100 µM	> 100 µM	> 100 µM	> 100 µM	> 100 µM	–	–	–	–
OC(CC(O)(C(F)(F)F)C(F)(F)F)C(O)c1ccco1 (configuration not stated)	> 10 µM	–	> 10 µM	> 10 µM	> 10 µM	> 10 µM	> 10 µM	> 10 µM	> 10 µM	> 10 µM	> 10 µM	> 10 µM	> 10 µM	> 10 µM	> 10 µM	> 10 µM	> 10 µM	> 10 µM	> 10 µM	> 10 µM
C#Cc1cc(CN(CC(=O)OC(C)(C)C)CC(=O)OC(C)(C)C)nc(CN(CC(=O)OC(C)(C)C)CC(=O)OC(C)(C)C)c1	26 µM	83.2 µM	77 µM	23 µM	–	93.8 µM	11.3 µM	21.1 µM	6.03 µM	51 µM	9.15 µM	26.6 µM	14.2 µM	28.6 µM	47.8 µM	> 100 µM	–	–	–	–

Reference: PubChem BioAssay (NCI)
